Laboratory results taken from article PMC6587565 (Diabetes, Obesity & Metabolism, 2018).
Where two headings read alike, the source gives them in different places.

What was measured:
[1] = system: patients with type 1 diabetes mellitus; test: Safety: adverse events, hypoglycaemic episodes, local tolerability; format: in vivo, human
[2] = format: in vivo, human
[3] = system: plasma glucose (PG) in patients with type 1 diabetes mellitus; format: in vivo, human; conditions: for AUE0-30min / AUE0-240min (area under plasma glucose excursions above baseline) / CE30min (plasma glucose excursion at 30 minutes) / CEmax (maximum plasma glucose excursion) / tCEmax (time to maximum plasma glucose excursion) / tPG increase ≥ 20 mg/dL (time to increase in plasma glucose ≥[…]) / tPG ≥70 mg/dL (time to reach plasma glucose ≥[…]): T1DM patients; for AUE0-30min / AUE0-240min (area under plasma glucose excursions above baseline) / CE30min (plasma glucose excursion at 30 minutes) / CEmax (maximum plasma glucose excursion): mean (SD), SD; for tCEmax (time to maximum plasma glucose excursion) / tPG increase ≥ 20 mg/dL (time to increase in plasma glucose ≥[…]) / tPG ≥70 mg/dL (time to reach plasma glucose ≥[…]): median (range)
[4] = hypoglycaemia, single s.c. dose 0.03 mg, T1DM patients, mean (SD), N=14, SD
[5] = euglycaemia, single s.c. dose 0.6 mg, N=17
[6] = hypoglycaemia, single s.c. dose 0.03 mg, N=17
[7] = hypoglycaemia, single s.c. dose 0.08 mg, N=17
[8] = hypoglycaemia, single s.c. dose 0.2 mg, N=17
[9] = hypoglycaemia, single s.c. dose 0.6 mg, N=17

## CC(C)C[C@H](NC(=O)[C@H](Cc1c[nH]c2ccccc12)NC(=O)[C@H](CCCCN)NC(=O)[C@@H](NC(=O)[C@H](Cc1ccccc1)NC(=O)[C@H](CCC(=O)O)NC(=O)[C@H](CCC(=O)O)NC(=O)[C@H](C)NC(=O)[C@H](CCCNC(=N)N)NC(=O)[C@H](C)NC(=O)C(C)(C)NC(=O)[C@H](CC(=O)O)NC(=O)[C@H](CC(C)C)NC(=O)[C@H](Cc1ccc(O)cc1)NC(=O)[C@H](CCCCN)NC(=O)[C@H](CO)NC(=O)[C@H](Cc1ccc(O)cc1)NC(=O)[C@H](CC(=O)O)NC(=O)[C@H](CO)NC(=O)[C@@H](NC(=O)[C@H](Cc1ccccc1)NC(=O)[C@@H](NC(=O)CNC(=O)[C@H](CCC(N)=O)NC(=O)[C@H](CO)NC(=O)[C@@H](N)Cc1c[nH]cn1)[C@@H](C)O)[C@@H](C)O)C(C)C)C(=O)N[C@@H](CCC(=O)O)C(=O)N[C@@H](CO)C(=O)N[C@H](C(=O)O)[C@@H](C)O [Dasiglucagon, dasiglucagon]
[1]; 17 completers, range of small doses (0.03-0.2 mg)
  Total hypoglycaemic events: 18
[1]; all doses (0.03-0.6 mg s.c.)
  Overall safety and tolerability: safe and well tolerated
[2]; euglycaemia, single s.c. dose 0.6 mg, T1DM patients, mean (SD), N=17, SD
  AUC0-inf: 3710 (585) pmol*h/L
[2]; euglycaemia, single s.c. dose 0.6 mg, T1DM patients, median (range), N=17
  Tmax: 0.5 (0.25‐1) h
[2]; human, plasma, sc, 0.03 mg
  Tmax: 30 min
[2]; human, plasma, sc, 0.03 mg, SD
  CL/F: 863 mL/min
  half-life: 22.9 min
[2]; human, plasma, sc, 0.08 mg
  Tmax: 30 min
[2]; human, plasma, sc, 0.08 mg, SD
  CL/F: 688 mL/min
  half-life: 28.4 min
[2]; human, plasma, sc, 0.2 mg
  Tmax: 30 min
[2]; human, plasma, sc, 0.2 mg, SD
  half-life: 33.9 min
[2]; human, plasma, sc, 0.6 mg
  Tmax: 30 min
[2]; [4]
  AUC0-inf: 182 (45.9) pmol*h/L
  CL/f (total body clearance): 52.6 (16.7) L/h
[2]; hypoglycaemia, single s.c. dose 0.03 mg, T1DM patients, mean (SD), N=17, SD
  AUC0-240min: 174 (43.1) pmol*h/L
[2]; hypoglycaemia, single s.c. dose 0.03 mg, T1DM patients, median (range), N=17
  Tmax: 0.5 (0.25‐1) h
[2]; hypoglycaemia, single s.c. dose 0.08 mg, T1DM patients, mean (SD), N=16, SD
  t1/2 (terminal elimination half-life): 0.472 (0.154) h
[2]; hypoglycaemia, single s.c. dose 0.08 mg, T1DM patients, median (range), N=17
  Tmax: 0.5 (0.25‐1) h
[3]; 0.03 mg s.c., at both euglycaemia and hypoglycaemia
  Median time (range) to an increase in PG of at least […] (20 mg/dL): < 20 (18‐19.5) minutes
[3]; [5]
  AUE0-30min: 18.3 (5.25) mg*h/dL
  AUE0-240min (area under plasma glucose excursions above baseline): 479 (159) mg*h/dL
  CE30min (plasma glucose excursion at 30 minutes): 79.8 (23.4) mg/dL
  CEmax (maximum plasma glucose excursion): 165 (46.1) mg/dL
  tCEmax (time to maximum plasma glucose excursion): 90.0 (70‐240) min
  tPG increase ≥ 20 mg/dL (time to increase in plasma glucose ≥[…]): 10.0 (8‐14) min
[3]; hypoglycaemia, dose levels of 0.08 mg and above
  Patients achieving a PG level of at least […] within 30 minutes post-dose: 100%
[3]; hypoglycaemia, lowest dose level (0.03 mg)
  Patients achieving a PG level of at least […] within 30 minutes post-dose: 70.6%
[3]; [6]
  AUE0-30min: 4.60 (5.24) mg*h/dL
  AUE0-240min (area under plasma glucose excursions above baseline): 70.6 (100) mg*h/dL
  CE30min (plasma glucose excursion at 30 minutes): 23.7 (24.9) mg/dL
  CEmax (maximum plasma glucose excursion): 37.9 (38.9) mg/dL
  tCEmax (time to maximum plasma glucose excursion): 50.0 (0‐90) min
[3]; hypoglycaemia, single s.c. dose 0.03 mg, N=10
  tPG increase ≥ 20 mg/dL (time to increase in plasma glucose ≥[…]): 19.5 (12‐42) min
[3]; hypoglycaemia, single s.c. dose 0.03 mg, N=13
  tPG ≥70 mg/dL (time to reach plasma glucose ≥[…]): 14.0 (5‐37) min
[3]; [7]
  AUE0-30min: 14.3 (10.1) mg*h/dL
  AUE0-240min (area under plasma glucose excursions above baseline): 249 (201) mg*h/dL
  CE30min (plasma glucose excursion at 30 minutes): 63.9 (38.6) mg/dL
  CEmax (maximum plasma glucose excursion): 106 (61.1) mg/dL
  tCEmax (time to maximum plasma glucose excursion): 70.0 (50‐90) min
  tPG increase ≥ 20 mg/dL (time to increase in plasma glucose ≥[…]): 14.0 (7‐48) min
  tPG ≥70 mg/dL (time to reach plasma glucose ≥[…]): 10.0 (2‐27) min
[3]; [8]
  AUE0-30min: 19.0 (6.43) mg*h/dL
  AUE0-240min (area under plasma glucose excursions above baseline): 406 (175) mg*h/dL
  CE30min (plasma glucose excursion at 30 minutes): 86.8 (27.2) mg/dL
  CEmax (maximum plasma glucose excursion): 154 (48.4) mg/dL
  tCEmax (time to maximum plasma glucose excursion): 90.0 (70‐150) min
  tPG increase ≥ 20 mg/dL (time to increase in plasma glucose ≥[…]): 11.0 (8‐20) min
  tPG ≥70 mg/dL (time to reach plasma glucose ≥[…]): 6.0 (5‐11) min
[3]; [9]
  AUE0-30min: 21.9 (5.68) mg*h/dL
  AUE0-240min (area under plasma glucose excursions above baseline): 535 (187) mg*h/dL
  CE30min (plasma glucose excursion at 30 minutes): 94.2 (21.9) mg/dL
  CEmax (maximum plasma glucose excursion): 192 (54.1) mg/dL
  tCEmax (time to maximum plasma glucose excursion): 90.0 (70‐150) min
  tPG increase ≥ 20 mg/dL (time to increase in plasma glucose ≥[…]): 9.00 (8‐14) min
  tPG ≥70 mg/dL (time to reach plasma glucose ≥[…]): 6.0 (2‐8) min
